# What was measured:
# [1] = system: calf thymus DNA (CT-DNA); experiment: Thermal denaturation studies with duplex-form calf thymus DNA; format: binding; settings: [PND]/[DNA] molar ratio 1:5, CT-DNA 100 μM, ligand 20 μM, aqueous sodium phosphate buffer pH 7; for ΔTm after incubation at 37° C. for 0 hr: 0 hr at 37° C.; for ΔTm after incubation at 37° C. for 18 hrs: 18 hrs at 37° C.
# Method: Compounds have been subjected to thermal denaturation studies with duplex-form calf thymus DNA (CT-DNA) using an modification of a reported procedure (Newman, M. S. Carcinog-compr. Surv. 1976, 1, 203; (b) Hecht, S. S.; Loy, M.; Hoffman, Carcinog-compr. Surv. 1976, 1, 325). Working solutions in aqueous buffer (10 mM NaH2PO4/Na2HPO4, 1 mM Na2EDTA, pH 7.00+0.01) containing CT-DNA (100 μm in phosphate) and the PND (pyrrolo naphtha diazepine) (20 μm) have been prepared by addition of concentrated PND (pyrrolo naphtha diazepine) solutions in DMSO to obtain a fixed [PND]/[DNA] molar ratio of 1:5. The DNA-PND (pyrrolo naphtha diazepine) solutions have been incubated at 37° C. for 0 and 18 h prior to analysis. Samples have been monitored at 260 nm using a Beckman DU-800 spectrophotometer fitted with high performance temperature controller, and heated at 1° C. min in the 40-110° C. range. DNA helix→coil transition temperatures (Tm) have been obtained from the maxima in the d(A260)/dT derivative plots. Drug-induced alterations in DNA melting behavior are given by: ΔTm=Tm(DNA+PND)−Tm(DNA alone), where the Tm value for the PND-free CT-DNA is 69.1±0.01.
# The DNA binding activity for these novel substituted piperazine linked pyrrolo naphtho diazepine hybrids has been examined by thermal denaturation studies using calf thymus (CT) DNA. […] The data for some of the compounds are included in Table 1 for comparison.
# [2] = system: A549 lung cancer cell line; experiment: In vitro anticancer activity, MTT assay; format: cell-based, human; settings: for IC50: lung cancer cell line, MTT, 48 h continuous drug exposure, read-out: IC50 A549; for in-vitro cytotoxicity in lung cancer cell line (A549): result in words
# Method: (§1) In vitro biological activity studies were carried out at the pharmacology division, IICT, Hyderabad. The compounds were evaluated for in vitro anticancer activity against eight tumour cell lines derived from […] cancer types (breast, lung, liver, skeletal, kidney, prostrate, small intestine) as shown in Table 2. For each compound, dose response curves for each cell line were measured at a minimum of five concentrations at 10 fold dilutions. A protocol of 48 h continuous drug exposure was used and a MTT assay was used to estimate cell viability or growth. The concentration causing 50% inhibition (IC50) compared with the control was calculated. Some of the compounds have been evaluated for their in vitro cytotoxicity in eight cell lines from seven human cancer types. The results are expressed as IC50 determined relative to that of untreated control cells (Table-2).
# [3] = system: HEPG2 liver cancer cell line; experiment: In vitro anticancer activity, MTT assay; format: cell-based, human; settings: for IC50: liver cancer cell line, MTT, 48 h continuous drug exposure, read-out: IC50 HEPG2; for in-vitro cytotoxicity in liver cancer cell line (HEPG2): result in words
# Method: as §1
# [4] = system: MCF7 breast cancer cell line; experiment: In vitro anticancer activity, MTT assay; format: cell-based, human; settings: for IC50: breast cancer cell line, MTT, 48 h continuous drug exposure; for in-vitro cytotoxicity in breast cancer cell line (MCF-7): result in words
# Method: as §1
# [5] = system: NCIH460 large cell lung cancer cell line; experiment: In vitro anticancer activity, MTT assay; format: cell-based, human; settings: for IC50: large cell lung cancer cell line, MTT, 48 h continuous drug exposure; for in-vitro cytotoxicity in large cell lung cancer cell line (NCIH460): result in words
# Method: as §1
# [6] = system: PC-3 prostrate cancer cell line; experiment: In vitro anticancer activity, MTT assay; format: cell-based, human; settings: for IC50: prostrate cancer cell line, MTT, 48 h continuous drug exposure; for in-vitro cytotoxicity in prostrate cancer cell line (PC-3): result in words
# Method: as §1
# [7] = In vitro anticancer activity, MTT assay; format: cell-based; settings: kidney cancer cell line; MTT, 48 h continuous drug exposure; read-out: IC50 COS-1
# Method: as §1
# [8] = system: COS-1 kidney cancer cell line; experiment: In vitro anticancer activity, MTT assay; format: cell-based; settings: result in words
# Method: as §1
# [9] = system: IEC-6 small intestine cell line; experiment: In vitro anticancer activity, MTT assay; format: cell-based; settings: for in-vitro cytotoxicity in small intestine cancer cell line (IEC-6): result in words; for IC50: small intestine cell line, MTT, 48 h continuous drug exposure, read-out: IC50 IEC-6
# Method: as §1
# [10] = system: L-6 skeletal cancer cell line; experiment: In vitro anticancer activity, MTT assay; format: cell-based; settings: result in words
# Method: as §1
# [11] = system: L-6; experiment: In vitro anticancer activity, MTT assay; format: cell-based; settings: skeletal cancer cell line; MTT, 48 h continuous drug exposure
# Method: as §1
molecule,measurement,setting,value
"8-Methoxy-9-(2-chloroethoxy)-(13aS)-1,2,3,13a-tetrahydro-5H-pyrrolo[2,1-c][1,4]naphthodiazepine-5-one [1a]",ΔTm after incubation at 37° C. for 0 hr,[1],6.2 °C
same,ΔTm after incubation at 37° C. for 18 hrs,[1],7.6 °C
same,IC50,[2],20 nM
same,in-vitro cytotoxicity in lung cancer cell line (A549),[2],exhibiting in-vitro cytotoxicity
same,IC50,[3],520 nM
same,in-vitro cytotoxicity in liver cancer cell line (HEPG2),[3],exhibiting in-vitro cytotoxicity
same,IC50,[4],50 nM
same,in-vitro cytotoxicity in breast cancer cell line (MCF-7),[4],exhibiting in-vitro cytotoxicity
same,IC50,[5],300 nM
same,in-vitro cytotoxicity in large cell lung cancer cell line (NCIH460),[5],exhibiting in-vitro cytotoxicity
same,IC50,[6],390 nM
same,in-vitro cytotoxicity in prostrate cancer cell line (PC-3),[6],exhibiting in-vitro cytotoxicity
same,IC50,[7],3060 nM
same,in-vitro cytotoxicity in kidney cancer cell line (COS-1),[8],exhibiting in-vitro cytotoxicity
same,in-vitro cytotoxicity in small intestine cancer cell line (IEC-6),[9],exhibiting in-vitro cytotoxicity
same,IC50,[9],20 nM
same,in-vitro cytotoxicity in skeletal cancer cell line (L-6),[10],exhibiting in-vitro cytotoxicity
same,IC50,[11],1080 nM
"9-Methoxy-8-(2-chloroethoxy)-(13aS)-1,2,3,13a-tetrahydro-5H-pyrrolo[2,1-c][1,4]naphthodiazepine-5-one [2a]",ΔTm after incubation at 37° C. for 0 hr,[1],7.1 °C
same,ΔTm after incubation at 37° C. for 18 hrs,[1],9.5 °C
same,IC50,[2],110 nM
same,in-vitro cytotoxicity in lung cancer cell line (A549),[2],exhibiting in-vitro cytotoxicity
same,IC50,[3],20 nM
same,in-vitro cytotoxicity in liver cancer cell line (HEPG2),[3],exhibiting in-vitro cytotoxicity
same,IC50,[4],2 nM
same,in-vitro cytotoxicity in breast cancer cell line (MCF-7),[4],exhibiting in-vitro cytotoxicity
same,IC50,[5],20 nM
same,in-vitro cytotoxicity in large cell lung cancer cell line (NCIH460),[5],exhibiting in-vitro cytotoxicity
same,IC50,[6],20 nM
same,in-vitro cytotoxicity in prostrate cancer cell line (PC-3),[6],exhibiting in-vitro cytotoxicity
same,IC50,[7],910 nM
same,in-vitro cytotoxicity in kidney cancer cell line (COS-1),[8],exhibiting in-vitro cytotoxicity
same,in-vitro cytotoxicity in small intestine cancer cell line (IEC-6),[9],exhibiting in-vitro cytotoxicity
same,IC50,[9],10 nM
same,in-vitro cytotoxicity in skeletal cancer cell line (L-6),[10],exhibiting in-vitro cytotoxicity
same,IC50,[11],2 nM
"COc1cc2cc3c(cc2cc1OCCN1CCN(Cc2ccc4c(c2)OCO4)CC1)N=C[C@@H]1CCCN1C3=O [7a, 8-Methoxy-9-(2-[4-(1,3-benzodioxol-5-ylmethyl)piperazino]ethoxyl)(13aS)-1,2,3,13a-tetrahydro-5H-pyrrolo[2,1-c][1,4]naphthodiazepin-5-one]",ΔTm after incubation at 37° C. for 0 hr,[1],4.9 °C
same,ΔTm after incubation at 37° C. for 18 hrs,[1],6.5 °C
same,IC50,[2],2210 nM
same,in-vitro cytotoxicity in lung cancer cell line (A549),[2],exhibiting in-vitro cytotoxicity
same,IC50,[3],110 nM
same,in-vitro cytotoxicity in liver cancer cell line (HEPG2),[3],exhibiting in-vitro cytotoxicity
same,IC50,[4],200 nM
same,in-vitro cytotoxicity in breast cancer cell line (MCF-7),[4],exhibiting in-vitro cytotoxicity
same,IC50,[5],80 nM
same,in-vitro cytotoxicity in large cell lung cancer cell line (NCIH460),[5],exhibiting in-vitro cytotoxicity
same,IC50,[6],640 nM
same,in-vitro cytotoxicity in prostrate cancer cell line (PC-3),[6],exhibiting in-vitro cytotoxicity
same,IC50,[7],2580 nM
same,in-vitro cytotoxicity in kidney cancer cell line (COS-1),[8],exhibiting in-vitro cytotoxicity
same,in-vitro cytotoxicity in small intestine cancer cell line (IEC-6),[9],exhibiting in-vitro cytotoxicity
same,IC50,[9],50 nM
same,in-vitro cytotoxicity in skeletal cancer cell line (L-6),[10],exhibiting in-vitro cytotoxicity
same,IC50,[11],770 nM
"COc1cc2cc3c(cc2cc1OCCN1CCN(c2ccccc2)CC1)N=C[C@@H]1CCCN1C3=O [8a, 8-Methoxy-9-[2-(4-phenylpiperazino)ethoxy]-(13aS)-1,2,3,13a-tetrahydro-5H-pyrrolo[2,1-c][1,4]naphthodiazepin-5-one]",ΔTm after incubation at 37° C. for 0 hr,[1],5.1 °C
same,ΔTm after incubation at 37° C. for 18 hrs,[1],6.9 °C
same,IC50,[2],7420 nM
same,in-vitro cytotoxicity in lung cancer cell line (A549),[2],exhibiting in-vitro cytotoxicity
same,IC50,[3],470 nM
same,in-vitro cytotoxicity in liver cancer cell line (HEPG2),[3],exhibiting in-vitro cytotoxicity
same,IC50,[4],1500 nM
same,in-vitro cytotoxicity in breast cancer cell line (MCF-7),[4],exhibiting in-vitro cytotoxicity
same,IC50,[5],430 nM
same,in-vitro cytotoxicity in large cell lung cancer cell line (NCIH460),[5],exhibiting in-vitro cytotoxicity
same,IC50,[6],1600 nM
same,in-vitro cytotoxicity in prostrate cancer cell line (PC-3),[6],exhibiting in-vitro cytotoxicity
same,IC50,[7],6390 nM
same,in-vitro cytotoxicity in kidney cancer cell line (COS-1),[8],exhibiting in-vitro cytotoxicity
same,in-vitro cytotoxicity in small intestine cancer cell line (IEC-6),[9],exhibiting in-vitro cytotoxicity
same,IC50,[9],140 nM
same,in-vitro cytotoxicity in skeletal cancer cell line (L-6),[10],exhibiting in-vitro cytotoxicity
same,IC50,[11],1010 nM
"COc1cc2cc3c(cc2cc1OCCN1CCN(c2ccccn2)CC1)N=C[C@@H]1CCCN1C3=O [12a, 8-Methoxy-9-(2-[4-(2-pyridyl)piperazino]ethoxy)-(13aS)-1,2,3,13a-tetrahydro-5H-pyrrolo[2,1-c][1,4]naphthodiazepin-5-one]",ΔTm after incubation at 37° C. for 0 hr,[1],5.8 °C
same,ΔTm after incubation at 37° C. for 18 hrs,[1],7.1 °C
same,IC50,[2],320 nM
same,in-vitro cytotoxicity in lung cancer cell line (A549),[2],exhibiting in-vitro cytotoxicity
same,IC50,[3],220 nM
same,in-vitro cytotoxicity in liver cancer cell line (HEPG2),[3],exhibiting in-vitro cytotoxicity
same,IC50,[4],10 nM
same,in-vitro cytotoxicity in breast cancer cell line (MCF-7),[4],exhibiting in-vitro cytotoxicity
same,IC50,[5],240 nM
same,in-vitro cytotoxicity in large cell lung cancer cell line (NCIH460),[5],exhibiting in-vitro cytotoxicity
same,IC50,[6],100 nM
same,in-vitro cytotoxicity in prostrate cancer cell line (PC-3),[6],exhibiting in-vitro cytotoxicity
same,IC50,[7],4320 nM
same,in-vitro cytotoxicity in kidney cancer cell line (COS-1),[8],exhibiting in-vitro cytotoxicity
same,in-vitro cytotoxicity in small intestine cancer cell line (IEC-6),[9],exhibiting in-vitro cytotoxicity
same,IC50,[9],160 nM
same,in-vitro cytotoxicity in skeletal cancer cell line (L-6),[10],exhibiting in-vitro cytotoxicity
same,IC50,[11],860 nM
"COc1cc2cc3c(cc2cc1OCCN1CCN(c2ncccn2)CC1)N=C[C@@H]1CCCN1C3=O [13a, 8-Methoxy-9-(2-[4-(2-pyrimidinyl)piperazino]ethoxy)-(13aS)-1,2,3,13a-tetrahydro-5H-pyrrolo[2,1-c][1,4]naphthodiazepin-5-one]",ΔTm after incubation at 37° C. for 0 hr,[1],5.0 °C
same,ΔTm after incubation at 37° C. for 18 hrs,[1],6.5 °C
same,IC50,[2],860 nM
same,in-vitro cytotoxicity in lung cancer cell line (A549),[2],exhibiting in-vitro cytotoxicity
same,IC50,[3],40 nM
same,in-vitro cytotoxicity in liver cancer cell line (HEPG2),[3],exhibiting in-vitro cytotoxicity
same,IC50,[4],40 nM
same,in-vitro cytotoxicity in breast cancer cell line (MCF-7),[4],exhibiting in-vitro cytotoxicity
same,IC50,[5],260 nM
same,in-vitro cytotoxicity in large cell lung cancer cell line (NCIH460),[5],exhibiting in-vitro cytotoxicity
same,IC50,[6],80 nM
same,in-vitro cytotoxicity in prostrate cancer cell line (PC-3),[6],exhibiting in-vitro cytotoxicity
same,IC50,[7],1870 nM
same,in-vitro cytotoxicity in kidney cancer cell line (COS-1),[8],exhibiting in-vitro cytotoxicity
same,in-vitro cytotoxicity in small intestine cancer cell line (IEC-6),[9],exhibiting in-vitro cytotoxicity
same,IC50,[9],20 nM
same,in-vitro cytotoxicity in skeletal cancer cell line (L-6),[10],exhibiting in-vitro cytotoxicity
same,IC50,[11],610 nM
